{"source": "patent US11498920B2", "about": "“4-(1H-imidazol-5-yl)-1H-pyrrolo[2, 3-b] pyridines for use in the treatment of leukaemias, lymphomas and solid tumors” (MASARYKOVA UNIVERZITA, priority 2018, dated 2022)", "data": [{"test_system": "primary CLL cells", "test": "Cytotoxicity, TMRE flow cytometry viability, primary CLL cells (Example II.1)", "format": "cell-based", "conditions": "Homo sapiens, CLL cell, 6 hours, TMRE positive cells normalized to control, ratio to PF670462, <1 = higher cytotoxicity than PF670462, read-out: Viability of cells, Compound of formula I (100 μM), relative to PF670462 (100 μM), CLL primary cells", "method": "(§1) The leukemia and lymphoma-derived cell lines [MEC-1 cell line (derived from chronic lymphocytic leukemia—CLL), Nalm-16 (acute lymphocytic leukemia—ALL), K562 (chronic myeloid leukemia—CML), HL-60 (acute myeloid leukemia—AML), Maver-1 and Mino (mantle cell lymphoma—MCL), BL-41 (Burkitt lymphoma—BL), WSU-NHL (follicular lymphoma—FL), SUDHL (diffuse large B-cell lymphoma—DLBCL)], primary CLL cells and nonmalignant control primary cells were cultured in suspension in flasks under the following conditions: RPMI 1640 medium (Hyclone) supplemented with 10% fetal bovine serum (FBS, Gibco) and 1% penicillin/streptomycin (Life Technologies), 37° C., 5% CO2 and 95% relative humidity, with optimal culture cell density 5×10^6 cells/mL in case of primary cells and 0.5-1×10^6 cells/mL in case of cell lines. The adherent cell lines [A375 (derived from malignant melanoma), MDA-MB-231 and MCF-7 (breast cancer), MIA-PA-CA and PANC1 (pancreatic cancer), PC3 (prostate cancer), OVCAR4 (ovarian cancer) and HEPG2 (hepatocellular carcinoma)] were cultured on plates under the same conditions using RPMI1640 or DMEM medium (Gibco) according to instructions provided by the distributor (DSMZ/ATCC).\n(§2) Cytotoxicity of compounds of formula I was tested in two models representative for leukemia (primary CLL cells) and lymphoma (Maver-1 cells). The primary CLL cells and Maver-1 cells (MCL-derived) were incubated with inhibitors at 100 μM concentration or corresponding amount of solvent (DMSO, Sigma Aldrich) as 0.1×10^6 cells/200 μl per well in a 96-well plate. Experiments were performed in technical duplicates. Viability of cells was assessed after 6 hours in case of primary CLL cells and after 24 hours in case of Maver-1 cells.\n(§3) Apoptosis-induced reduction of mitochondrial potential is detected as lower TMRE fluorescence. […] Relative values are presented, showing ratio to the effect of PF670462 (as the closest prior art). Relative value <1 indicates a higher cytotoxicity than PF670462.", "units": {"viability at 100 µM": "%"}, "values": [{"smiles": "C=C(C)Cn1cnc(-c2ccc(F)cc2)c1-c1ccnc2[nH]ccc12", "note": "[Preparative Example 30, 4-(4-(4-fluorophenyl)-1-(2-methylallyl)-1H-imidazol-5-yl)-1H-pyrrolo[2,3-b]pyridine]", "viability at 100 µM": 69}, {"smiles": "CC(=O)N[C@H]1CC[C@H](n2cnc(-c3ccc(F)cc3)c2-c2ccnc3[nH]ccc23)CC1", "note": "[Preparative Example 78, N-(trans-4-(4-(4-fluorophenyl)-5-(1H-pyrrolo[2,3-b]pyridin-4-yl)-1H-imidazol-1-yl)cyclohexyl)acetamide]", "viability at 100 µM": 87}, {"smiles": "CN(C)CCn1cnc(-c2ccc(F)cc2)c1-c1ccnc2[nH]ccc12", "note": "[Preparative Example 21]", "viability at 100 µM": 72}, {"smiles": "Fc1ccc(-c2ncn(C3CCC3)c2-c2ccnc3[nH]ccc23)cc1", "note": "[Preparative Example 17, 4-(1-cyclobutyl-4-(4-fluorophenyl)-1H-imidazol-5-yl)-1H-pyrrolo[2,3-b]pyridine]", "viability at 100 µM": 52}, {"smiles": "c1cncc(-c2ncn(C3CCCCC3)c2-c2ccnc3[nH]ccc23)c1", "note": "[Preparative Example 44]", "viability at 100 µM": 81}, {"smiles": "Fc1ccc(-c2ncn(C34CCN(CC3)C4)c2-c2ccnc3[nH]ccc23)cc1", "note": "[Preparative Example 86, 4-(1-((1r,4r)-1-azabicyclo[2.2.1]heptan-4-yl)-4-(4-fluorophenyl)-1H-imidazol-5-yl)-1H-pyrrolo[2,3-b]pyridine]", "viability at 100 µM": 76}, {"smiles": "O[C@H]1CC[C@H](n2cnc(-c3ccc(F)cc3)c2-c2ccnc3[nH]ccc23)CC1", "note": "[Preparative Example 32, trans-4-(4-(4-fluorophenyl)-5-(1H-pyrrolo[2,3-b]pyridin-4-yl)-1H-imidazol-1-yl)cyclohexan-1-ol]", "viability at 100 µM": 67}, {"smiles": "Cn1cnc(-c2ccc(F)cc2)c1-c1ccnc2[nH]ccc12", "note": "[Preparative Example 25]", "viability at 100 µM": 81}, {"smiles": "Fc1ccc(-c2ncn(CCN3CCOCC3)c2-c2ccnc3[nH]ccc23)cc1", "note": "[Preparative Example 12, 4-(2-(4-(4-fluorophenyl)-5-(1H-pyrrolo[2,3-b]pyridin-4-yl)-1H-imidazol-1-yl)ethyl)morpholine]", "viability at 100 µM": 80}, {"smiles": "O[C@H]1CC[C@@H](n2cnc(-c3ccc(F)cc3)c2-c2ccnc3[nH]ccc23)CC1", "note": "[Preparative Example 31]", "viability at 100 µM": 78}, {"smiles": "CO[C@H]1CC[C@H](n2cnc(-c3ccc(F)cc3)c2-c2ccnc3[nH]ccc23)CC1", "note": "[Preparative Example 28, 4-(4-(4-fluorophenyl)-1-(trans-4-methoxycyclohexyl)-1H-imidazol-5-yl)-1H-pyrrolo[2,3-b]pyridine]", "viability at 100 µM": 67}, {"smiles": "CC(C)CCn1cnc(-c2ccc(F)cc2)c1-c1ccnc2[nH]ccc12", "note": "[Preparative Example 15, 4-(4-(4-fluorophenyl)-1-isopentyl-1H-imidazol-5-yl)-1H-pyrrolo[2,3-b]pyridine]", "viability at 100 µM": 13}, {"smiles": "Cn1ccc(Cn2cnc(-c3ccc(F)c(Cl)c3)c2-c2ccnc3[nH]ccc23)n1", "note": "[Preparative Example 143, 4-(4-(3-chloro-4-fluorophenyl)-1-((1-methyl-1H-pyrazol-3-yl)methyl)-1H-imidazol-5-yl)-1H-pyrrolo[2,3-b]pyridine]", "viability at 100 µM": 66}, {"smiles": "CS(=O)(=O)N[C@H]1CC[C@H](n2cnc(-c3ccc(F)cc3)c2-c2ccnc3[nH]ccc23)CC1", "note": "[Preparative Example 79, N-(trans-4-(4-(4-fluorophenyl)-5-(1H-pyrrolo[2,3-b]pyridin-4-yl)-1H-imidazol-1-yl)cyclohexyl)methanesulfonamide]", "viability at 100 µM": 86}, {"smiles": "O[C@H]1CCC[C@H](n2cnc(-c3ccc(F)cc3)c2-c2ccnc3[nH]ccc23)C1", "note": "[Preparative Example 158, (1S,3S)-3-(4-(4-fluorophenyl)-5-(1H-pyrrolo[2,3-b]pyridin-4-yl)-1H-imidazol-1-yl)cyclohexan-1-ol]", "viability at 100 µM": 76}, {"smiles": "CC(C)OCCn1cnc(-c2ccc(F)cc2)c1-c1ccnc2[nH]ccc12", "note": "[Preparative Example 20, 4-(4-(4-fluorophenyl)-1-(2-isopropoxyethyl)-1H-imidazol-5-yl)-1H-pyrrolo[2,3-b]pyridine]", "viability at 100 µM": 68}, {"smiles": "CC(=O)N1CCC(n2cnc(-c3ccc(F)cc3)c2-c2ccnc3[nH]ccc23)CC1", "note": "[Preparative Example 68, 1-(4-(4-(4-fluorophenyl)-5-(1H-pyrrolo[2,3-b]pyridin-4-yl)-1H-imidazol-1-yl)piperidin-1-yl)ethan-1-one]", "viability at 100 µM": 81}, {"smiles": "Fc1ccc(-c2ncn(Cc3cnsc3)c2-c2ccnc3[nH]ccc23)cc1", "note": "[Preparative Example 130, 4-((4-(4-fluorophenyl)-5-(1H-pyrrolo[2,3-b]pyridin-4-yl)-1H-imidazol-1-yl)methyl)isothiazole]", "viability at 100 µM": 89}, {"smiles": "Fc1ccc(-c2ncn(C3CCOCC3)c2-c2ccnc3[nH]ccc23)cc1", "note": "[Preparative Example 13, 4-(4-(4-fluorophenyl)-1-(tetrahydro-2H-pyran-4-yl)-1H-imidazol-5-yl)-1H-pyrrolo[2,3-b]pyridine]", "viability at 100 µM": 47}, {"smiles": "Fc1ccc(-c2ncn(C3CCOC3)c2-c2ccnc3[nH]ccc23)cc1", "note": "(stereo not shown) [Preparative Example 16, 4-(4-(4-fluorophenyl)-1-(tetrahydrofuran-3-yl)-1H-imidazol-5-yl)-1H-pyrrolo[2,3-b]pyridine]", "viability at 100 µM": 67}, {"smiles": "Fc1ccc(-c2ncn(Cc3ccncc3)c2-c2ccnc3[nH]ccc23)cc1", "note": "[Preparative Example 83, 4-(4-(4-fluorophenyl)-1-(pyridin-4-ylmethyl)-1H-imidazol-5-yl)-1H-pyrrolo[2,3-b]pyridine]", "viability at 100 µM": 78}, {"smiles": "CN1CCC(O)(Cn2cnc(-c3ccc(F)cc3)c2-c2ccnc3[nH]ccc23)CC1", "note": "[Preparative Example 119, 4-((4-(4-fluorophenyl)-5-(1H-pyrrolo[2,3-b]pyridin-4-yl)-1H-imidazol-1-yl)methyl)-1-methylpiperidin-4-ol]", "viability at 100 µM": 87}, {"smiles": "Fc1ccc(-c2ncn(C3CCCC3)c2-c2ccnc3[nH]ccc23)cc1", "note": "[Preparative Example 18, 4-(1-cyclopentyl-4-(4-fluorophenyl)-1H-imidazol-5-yl)-1H-pyrrolo[2,3-b]pyridine]", "viability at 100 µM": 33}]}, {"test_system": "Maver-1 cells (mantle cell lymphoma)", "test": "Cytotoxicity, TMRE flow cytometry viability, Maver-1 cells (Example II.1)", "format": "cell-based", "conditions": "Homo sapiens, Maver1, 24 hours, TMRE positive cells normalized to control, ratio to PF670462, <1 = higher cytotoxicity than PF670462, read-out: Viability of cells, Compound of formula I (100 μM), relative to PF670462 (100 μM), Maver-1 cells (mantle cell lymphoma)", "method": "as §1, §2, §3", "units": {"viability at 100 µM": "%"}, "values": [{"smiles": "Cc1ncc(Cn2cnc(-c3ccc(F)cc3)c2-c2ccnc3[nH]ccc23)s1", "note": "[Preparative Example 152, 5-((4-(4-fluorophenyl)-5-(1H-pyrrolo[2,3-b]pyridin-4-yl)-1H-imidazol-1-yl)methyl)-2-methylthiazole]", "viability at 100 µM": 62}, {"smiles": "CC(c1cnn(C)c1)n1cnc(-c2ccc(F)cc2)c1-c1ccnc2[nH]ccc12", "note": "(stereo not shown) [Preparative Example 145]", "viability at 100 µM": 42}, {"smiles": "Fc1ccc(-c2ncn(Cc3ccccc3)c2-c2ccnc3[nH]ccc23)nc1", "note": "[Preparative Example 184, 4-(1-benzyl-4-(5-fluoropyridin-2-yl)-1H-imidazol-5-yl)-1H-pyrrolo[2,3-b]pyridine]", "viability at 100 µM": 57}, {"smiles": "Fc1ccc(-c2ncn(Cc3cscn3)c2-c2ccnc3[nH]ccc23)cc1", "note": "[Preparative Example 127, 4-((4-(4-fluorophenyl)-5-(1H-pyrrolo[2,3-b]pyridin-4-yl)-1H-imidazol-1-yl)methyl)thiazole]", "viability at 100 µM": 72}, {"smiles": "OC1(Cn2cnc(-c3ccc(F)cc3)c2-c2ccnc3[nH]ccc23)CCC1", "note": "[Preparative Example 91, 1-((4-(4-fluorophenyl)-5-(1H-pyrrolo[2,3-b]pyridin-4-yl)-1H-imidazol-1-yl)methyl)cyclobutan-1-ol]", "viability at 100 µM": 69}]}]}
